For assay [1], the target named is Acetylcholinesterase (Electrophorus electricus, UniProt O42275).
Description: Inhibition of acetylcholinesterase (AChE) in electric eel (type V-S) by modified radiometric assay
The target in assay [2] is Acetylcholinesterase (Homo sapiens, UniProt P22303).
Description: Inhibition of acetylcholinesterase (AChE) of human red blood cell (type XIII) by modified radiometric AChE assay
Assay [3] addresses Butyrylcholinesterase (Equus caballus, UniProt Q9N1N9).
Description: Inhibition of (BChE) Butyrylcholinesterase of horse serum

What is called IC50 is the concentration needed to halve the response being measured. A lower IC50 goes with inhibition by little substance.

Chain of Acetylcholinesterase (Homo sapiens, UniProt P22303) (P22303 whole entry): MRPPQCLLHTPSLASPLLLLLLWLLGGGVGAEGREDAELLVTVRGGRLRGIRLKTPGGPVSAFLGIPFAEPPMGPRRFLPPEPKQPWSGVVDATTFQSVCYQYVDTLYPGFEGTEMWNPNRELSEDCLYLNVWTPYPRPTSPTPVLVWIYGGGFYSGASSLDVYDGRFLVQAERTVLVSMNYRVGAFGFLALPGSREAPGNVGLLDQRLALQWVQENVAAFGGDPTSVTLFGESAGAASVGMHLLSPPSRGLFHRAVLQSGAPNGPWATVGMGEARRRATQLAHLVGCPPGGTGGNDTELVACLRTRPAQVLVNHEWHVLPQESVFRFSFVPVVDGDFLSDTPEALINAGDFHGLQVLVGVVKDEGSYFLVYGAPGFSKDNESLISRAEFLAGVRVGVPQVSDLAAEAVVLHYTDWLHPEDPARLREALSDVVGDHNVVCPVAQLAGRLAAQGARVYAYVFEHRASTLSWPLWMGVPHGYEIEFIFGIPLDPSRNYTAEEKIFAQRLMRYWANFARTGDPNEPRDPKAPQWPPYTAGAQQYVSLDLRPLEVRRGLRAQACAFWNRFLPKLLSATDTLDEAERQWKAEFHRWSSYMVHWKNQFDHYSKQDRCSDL
Chain of Butyrylcholinesterase (Q9N1N9 whole entry): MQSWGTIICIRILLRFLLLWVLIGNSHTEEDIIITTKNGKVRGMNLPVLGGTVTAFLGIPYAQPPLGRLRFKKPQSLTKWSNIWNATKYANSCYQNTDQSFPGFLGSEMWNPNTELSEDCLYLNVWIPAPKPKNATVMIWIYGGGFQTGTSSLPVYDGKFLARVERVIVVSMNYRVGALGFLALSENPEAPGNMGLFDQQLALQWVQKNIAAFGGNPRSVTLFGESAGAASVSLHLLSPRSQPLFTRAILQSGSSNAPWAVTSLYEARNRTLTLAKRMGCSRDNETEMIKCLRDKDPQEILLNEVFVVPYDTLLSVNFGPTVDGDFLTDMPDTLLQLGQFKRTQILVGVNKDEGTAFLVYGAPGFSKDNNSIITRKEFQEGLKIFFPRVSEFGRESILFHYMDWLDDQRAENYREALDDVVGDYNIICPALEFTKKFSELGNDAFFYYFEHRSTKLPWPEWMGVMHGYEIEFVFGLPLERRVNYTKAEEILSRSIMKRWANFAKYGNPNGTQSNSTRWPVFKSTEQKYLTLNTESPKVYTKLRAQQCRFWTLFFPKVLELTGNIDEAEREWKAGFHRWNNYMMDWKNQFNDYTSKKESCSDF
Chain of Acetylcholinesterase (Electrophorus electricus, UniProt O42275) (O42275 whole entry): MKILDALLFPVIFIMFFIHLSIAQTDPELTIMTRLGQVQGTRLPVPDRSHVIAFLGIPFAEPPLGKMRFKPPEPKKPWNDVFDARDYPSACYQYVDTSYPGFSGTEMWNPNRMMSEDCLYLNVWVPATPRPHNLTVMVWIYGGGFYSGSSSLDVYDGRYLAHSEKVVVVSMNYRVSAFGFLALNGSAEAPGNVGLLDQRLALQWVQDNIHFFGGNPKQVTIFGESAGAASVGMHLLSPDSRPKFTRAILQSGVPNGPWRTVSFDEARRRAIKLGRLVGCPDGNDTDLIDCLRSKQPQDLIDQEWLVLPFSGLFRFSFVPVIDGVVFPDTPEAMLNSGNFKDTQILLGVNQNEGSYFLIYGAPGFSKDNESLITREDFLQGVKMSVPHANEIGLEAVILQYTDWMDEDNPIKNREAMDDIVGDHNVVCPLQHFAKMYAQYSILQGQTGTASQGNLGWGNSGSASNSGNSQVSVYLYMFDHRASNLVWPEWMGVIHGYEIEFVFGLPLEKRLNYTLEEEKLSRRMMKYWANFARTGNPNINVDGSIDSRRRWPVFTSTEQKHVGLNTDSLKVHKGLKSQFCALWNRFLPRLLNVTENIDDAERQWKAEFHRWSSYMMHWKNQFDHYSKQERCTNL

Consider `Nc1c2c(nc3cccc(Cl)c13)CCCC2`, for which the half-inhibitory concentration (IC50) in assay [1] was 4.43 nM; in assay [2] it was 9.4 nM; in assay [3], 12.7 nM.

The compound `Nc1c2c(nc3cc(Cl)ccc13)CCCC2` had a half-inhibitory concentration (IC50) in assay [1] of 2.87 nM.

As for `Nc1c2c(nc3cc(Cl)ccc13)C1CCC2C1` (centres undefined), the IC50 in assay [1] worked out at 2.33 nM; in assay [2] it was 4.5 nM; in assay [3], 21.7 nM.

With `Nc1c2c(nc3c(Cl)cccc13)C1CCC2C1` (centres undefined), the IC50 was determined as 493 nM in assay [1], 84.3 nM in assay [2] and 207 nM in assay [3].

Consider `Nc1c2c(nc3cccc(Cl)c13)C1CCC2C1` (centres undefined), for which the figures for the IC50 in assay [1], in assay [2] and in assay [3] were 6.52 nM, 42.2 nM and 15.3 nM, respectively.

On to `Nc1c2c(nc3c(Cl)cccc13)CCCC2`, for which the IC50 in assay [1] worked out at 36 nM; in assay [2] it was 68.9 nM; in assay [3] it was 45 nM.

In the case of `Nc1c2c(nc3ccccc13)C1CCC2C1` (centres undefined), the concentration for half-maximal inhibition (IC50) worked out at 11.7 nM in assay [1] and 1.3 nM in assay [3].

`Nc1c2c(nc3ccc(Cl)cc13)CCCC2`: the concentration for half-maximal inhibition (IC50) in assay [1] amounted to 40 nM; in assay [2], 743 nM; in assay [3] it was 0.7 nM.

In the case of `CNC(=O)Oc1ccc2c(c1)[C@]1(C)CCN(C)[C@@H]1N2C` [PHYSOSTIGMINE], half-maximal inhibition in assay [3] (IC50) was put at 4670 nM. This lies in the single-digit micromolar range.

Regarding `Nc1c2c(nc3ccccc13)CCCC2O` (centres undefined) [VELNACRINE], the figures for the IC50 in assay [1] and in assay [3] were 59.8 nM and 53.3 nM, respectively.
